Experimental data as given in the supplement of paper PMC10307832.

How the values were obtained:
Assay in all cases: relative viability (nuclei count vs DMSO), 5 days (fraction); higher = more cells survive
AT9283 + Navitoclax = compound: O=C(Nc1c[nH]nc1-c1nc2ccc(CN3CCOCC3)cc2[nH]1)NC1CC1 [AT9283] + CC1(C)CCC(c2ccc(Cl)cc2)=C(CN2CCN(c3ccc(C(=O)NS(=O)(=O)c4ccc(N[C@H](CCN5CCOCC5)CSc5ccccc5)c(S(=O)(=O)C(F)(F)F)c4)cc3)CC2)C1 [Navitoclax] (partner 0.5 µM)
Procedure, shortened: (§1)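 Lung cancer cell lines in 1536-well plates were dosed by pin tool the day after seeding, either with one drug alone or with a fixed anchor-drug dose plus five library-drug doses (not always all listed) in √10 steps. After 5 days, cells were fixed and their nuclei stained in one step (final 0.05% Triton X-100, 1% formaldehyde, 1 ug/ml Hoechst), then counted on 4× images. Relative viability is the nuclei count in treated wells divided by that in vehicle wells. Values are medians of duplicate plates.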

Erlotinib + Dasatinib = compound: C#Cc1cccc(Nc2ncnc3cc(OCCOC)c(OCCOC)cc23)c1 [Erlotinib] + Cc1nc(Nc2ncc(C(=O)Nc3c(C)cccc3Cl)s2)cc(N2CCN(CCO)CC2)n1 [Dasatinib] (partner 0.075 µM)
Procedure, shortened: as §1

AT9283 + Vorinostat = compound: O=C(Nc1c[nH]nc1-c1nc2ccc(CN3CCOCC3)cc2[nH]1)NC1CC1 [AT9283] + O=C(CCCCCCC(=O)Nc1ccccc1)NO [Vorinostat] (partner 1 µM)
Procedure, shortened: as §1

Erlotinib + Linsitinib = compound: C#Cc1cccc(Nc2ncnc3cc(OCCOC)c(OCCOC)cc23)c1 [Erlotinib] + C[C@]1(O)C[C@@H](c2nc(-c3ccc4ccc(-c5ccccc5)nc4c3)c3c(N)nccn32)C1 [Linsitinib] (partner 1 µM)
Procedure, shortened: as §1

AT9283 + Alpelisib = compound: O=C(Nc1c[nH]nc1-c1nc2ccc(CN3CCOCC3)cc2[nH]1)NC1CC1 [AT9283] + Cc1nc(NC(=O)N2CCC[C@H]2C(N)=O)sc1-c1ccnc(C(C)(C)C(F)(F)F)c1 [Alpelisib] (partner 2 µM)
Procedure, shortened: as §1

| Cell Line | relative viability (AT9283 + Navitoclax; first compound 0.003 µM) | relative viability (AT9283 + Navitoclax; first compound 0.03 µM) | relative viability (AT9283 + Navitoclax; first compound 0.09487 µM) | relative viability (AT9283 + Navitoclax; first compound 0.3 µM) | relative viability (Erlotinib + Dasatinib; first compound 0.02 µM) | relative viability (Erlotinib + Dasatinib; first compound 0.2 µM) | relative viability (Erlotinib + Dasatinib; first compound 0.6325 µM) | relative viability (Erlotinib + Dasatinib; first compound 2 µM) | relative viability (AT9283 + Vorinostat; first compound 0.003 µM) | relative viability (AT9283 + Vorinostat; first compound 0.03 µM) | relative viability (AT9283 + Vorinostat; first compound 0.09487 µM) | relative viability (AT9283 + Vorinostat; first compound 0.3 µM) | relative viability (Erlotinib + Linsitinib; first compound 0.02 µM) | relative viability (Erlotinib + Linsitinib; first compound 0.2 µM) | relative viability (Erlotinib + Linsitinib; first compound 0.6325 µM) | relative viability (Erlotinib + Linsitinib; first compound 2 µM) | relative viability (AT9283 + Alpelisib; first compound 0.003 µM) | relative viability (AT9283 + Alpelisib; first compound 0.03 µM) | relative viability (AT9283 + Alpelisib; first compound 0.09487 µM) | relative viability (AT9283 + Alpelisib; first compound 0.3 µM) |
| --- | --- | --- | --- | --- | --- | --- | --- | --- | --- | --- | --- | --- | --- | --- | --- | --- | --- | --- | --- | --- |
| NCI-H1395 | 1.21 | 0.716 | 0.393 | 0.421 | 0.405 | 0.442 | 0.411 | 0.408 | 0.579 | 0.494 | 0.337 | 0.299 | 1.1 | 1.1 | 1.23 | 1.06 | 1 | 0.804 | 0.409 | 0.431 |
| LU99A | 0.766 | 0.243 | 0.142 | 0.151 | 0.556 | 0.474 | 0.584 | 0.475 | 0.457 | 0.253 | 0.228 | 0.15 | 0.616 | 0.497 | 0.457 | 0.446 | 0.489 | 0.222 | 0.144 | 0.152 |
| NCI-H650 | – | – | – | – | 0.38 | 0.456 | 0.526 | 0.425 | 0.405 | 0.375 | 0.282 | 0.146 | 0.817 | – | 1.06 | 0.843 | 1 | 0.951 | 0.252 | 0.162 |
| NCI-H522 | – | – | – | – | 0.812 | 0.784 | 1.06 | 0.85 | 0.782 | 0.549 | 0.527 | 0.376 | – | – | – | – | – | – | – | – |
| HCC-827 | 0.995 | 0.879 | 0.449 | 0.326 | 0.148 | 0.152 | 0.195 | 0.126 | 0.612 | 0.36 | 0.363 | 0.248 | 0.281 | 0.188 | 0.173 | 0.166 | 0.96 | 0.856 | 0.349 | 0.212 |
| 201T | 1.24 | 1.21 | 1.21 | 0.524 | 0.646 | 0.548 | 0.543 | 0.541 | 0.844 | 0.653 | 0.471 | 0.304 | 0.968 | 0.933 | 1.01 | 0.854 | 1.02 | 1.08 | 0.525 | 0.445 |
| Calu-6 | 0.794 | 0.113 | 0.134 | 0.102 | – | – | – | – | – | – | – | – | 1.01 | 0.913 | 0.902 | 0.816 | 0.986 | 0.23 | 0.26 | 0.246 |
| NCI-H2009 | 1.26 | 0.681 | 0.391 | 0.284 | 0.365 | 0.351 | 0.432 | 0.238 | 0.742 | 0.674 | 0.29 | 0.147 | 1.26 | 1.15 | 1.2 | 1.22 | 1.13 | 1.05 | 0.734 | 0.401 |
| EKVX | 0.697 | 0.861 | 0.435 | 0.264 | 0.544 | 0.242 | 0.321 | 0.223 | 0.673 | 0.545 | 0.302 | 0.287 | 0.941 | 0.395 | 0.235 | 0.117 | 0.934 | 0.726 | 0.356 | 0.218 |
| EBC-1 | 0.461 | 0.203 | 0.145 | 0.17 | – | – | – | – | – | – | – | – | 0.918 | 0.969 | 1.06 | 0.699 | 0.961 | 0.291 | 0.176 | 0.177 |
| ChaGo-K-1 | 0.694 | 0.746 | 0.244 | 0.299 | 0.626 | 0.512 | 0.636 | 0.5 | 0.662 | 0.447 | 0.325 | 0.216 | – | – | – | – | – | – | – | – |
| NCI-H1623 | – | – | – | – | 0.562 | 0.517 | 0.315 | 0.366 | – | – | – | – | – | – | – | – | – | – | – | – |
| SW 900 | – | – | – | – | 0.655 | 0.506 | 0.517 | 0.374 | 0.424 | 0.358 | 0.298 | 0.199 | – | – | – | – | – | – | – | – |
| A549 | 1.14 | 0.0945 | 0.0413 | 0.0451 | – | – | – | – | – | – | – | – | 0.546 | 0.523 | 0.63 | 0.489 | 0.973 | 0.0793 | 0.0636 | 0.068 |
| NCI-H1563 | – | – | – | – | 0.38 | 0.522 | 0.427 | 0.382 | – | – | – | – | 1.2 | 1.23 | 1.2 | 1.15 | 1.08 | 0.81 | 0.732 | 0.628 |
| NCI-H1650 | 1.34 | 1 | 0.29 | 0.232 | 0.283 | 0.265 | 0.282 | 0.325 | 0.608 | 0.487 | 0.375 | 0.194 | – | – | – | – | – | – | – | – |
| NCI-H661 | – | – | – | – | 0.912 | 0.693 | 0.735 | 0.443 | 0.858 | 0.359 | 0.316 | 0.384 | 0.731 | 0.432 | 0.663 | 0.493 | 0.627 | 0.427 | 0.329 | 0.36 |
| NCI-H2342 | – | – | – | – | 0.289 | 0.323 | 0.304 | 0.26 | 0.804 | 0.576 | 0.59 | 0.409 | – | – | – | – | – | – | – | – |
| NCI-H1703 | 1.36 | 0.19 | 0.216 | 0.176 | – | – | – | – | – | – | – | – | 0.749 | 0.818 | 1.08 | 0.924 | 0.361 | 0.214 | 0.174 | 0.223 |
| NCI-H1299 | 1.09 | 0.927 | 0.363 | 0.304 | – | – | – | – | – | – | – | – | 1.07 | 0.968 | 1.04 | 0.956 | 1.08 | 1.04 | 0.476 | 0.352 |
| NCI-H358 | – | – | – | – | 0.174 | 0.129 | 0.133 | 0.171 | 0.54 | 0.119 | 0.0833 | 0.0819 | 0.817 | 0.558 | 0.377 | 0.292 | 0.901 | 0.171 | 0.163 | 0.152 |
| NCI-H1648 | – | – | – | – | – | – | – | – | 0.378 | 0.468 | 0.325 | 0.308 | – | – | – | – | – | – | – | – |
